Source: patent US7070943B2 (priority 1998, dated 2006)

Assays:
pRB [1] = test: Western blot of pRB in HL-60 cells with anti-pRB^P− and anti-pRB^T mAbs; format: cell-based, human; conditions: HL-60, treated versus control
Excerpt: FIG. 10 presents a Western blot showing reactivity of anti-pRB^P− mAb(A) and anti-pRB^T mAb with proteins extracted from control (CON) and PMA-treated cells.
To reveal specificity of the antibodies used in these experiments, a standard Western blotting procedure was used on cellular lysates, as described in Gong et al., Cell Growth Differ. 6:1485–1493 (1995).

HL-60 cells = test: Cell cycle arrest and apoptosis of HL-60 cells during induced differentiation; format: cell-based, human
Protocol: Control cells were treated with an equivalent concentration of ethanol (<0.02%). […]

hypophosphorylated pRB = test: pRB^P− in differentiating HL-60 cells, flow cytometry; format: cell-based, human; conditions: RA 5×10^−7 M 5 days, vitamin D3 10^−8 M 6 days
Protocol: (§1) The human promyelocytic leukemic cell line HL-60 was kindly provided by Dr. Harry A. Crissman of the Los Alamos National Laboratory (Los Alamos, N. Mex.). The cells were maintained in RPMI 1640 supplemented with 10% fetal calf serum, 100 units/ml penicillin, 100 μg/ml streptomycin, and 2 mM L-glutamine at a density between 2 and 8×10^5 cells/ml at 37.5° C. in the mixture of 95% air and 5% CO2 for the periods of time described in the legends to the respective figures. During the exponential phase of cell growth, at densities below 8×10^5 cells/ml, the mean duration of the cell cycle of these cells is 23 hours (estimated as described in Darzynkiewicz, “Mammalian cell cycle analysis,” in The Cell Cycle: A Practical Approach, P. Fantes and R. Brooks, Eds., pp. 45–68 (Oxford Univ. Press, Oxford, UK, (1993)), and the mean duration of G1, S, G2, and M 11, 9, 2, and 1 h, respectively. The medium, supplements, and antibiotics were obtained from Life Technologies (Grand Island, N.Y.).
(§2) All-trans retinoic acid (RA), 1,25-dihydroxy vitamin D3 (vitamin D3), and phorbol myristate acetate (PMA) were purchased from Sigma Chemical Co. (St. Louis, Mo.). […] Control cells were treated with an equivalent concentration of ethanol (<0.02%). Stock solution of PMA at 1.6 mM was prepared in DMSO, stored at −20° C. in the dark, and used at a final concentration of 4×10^−8 M. The cultures were kept shielded from light. […]
(§3) Methods were essentially as described in Example 1. […] The cells were then rinsed with PBS containing 1% BSA, counterstained with 4,6-diamidino-2-phenyl indole (DAPI) (Molecular Probes Inc., Eugene, Oreg.), and their fluorescence was measured by flow cytometry.
(§4) Cellular fluorescence was measured with the ELITE ESP flow cytometer/cell sorter (Coulter Inc., Miami, Fla.) using an argon ion laser (emission at 488 nm) combined with a helium-cadmium laser (emitting UV light). DNA content was analyzed based on DAPI fluorescence (blue emission) excited by UV light, while the anti-pRb^P− mAb (FITC)-related emission and anti-pRB^T (CYCHROME®)-related emission was excited with blue light laser. To obtain the mean fluorescence values as shown in FIGS. 7–10, the cells were gated based on differences in their DNA content to distinguish cells in G1, S, and G2/M, and from the mean values of the FITC fluorescence the mean value of the respective control cells (FITC-conjugated isotype-matched IgG1) in the same phase of the cycle was subtracted. The mean values of S phase cells were multiplied by 0.75 and of G2/M cells by 0.5 to express the pRB-associated cell fluorescence per unit of DNA. The data were normalized to the mean fluorescence value of G1 cells from the untreated, control culture (100), as shown in FIGS. 7–10.

total pRB [2] = test: pRB^T in differentiating HL-60 cells, flow cytometry; format: cell-based, human; conditions: RA 5×10^−7 M 5 days, vitamin D3 10^−8 M 6 days
Protocol: as §1, §2, §3, §4

pRB [3] = test: pRB^P−/pRB^T ratio in differentiating HL-60 cells, flow cytometry; format: cell-based, human; conditions: RA 5×10^−7 M 5 days, vitamin D3 10^−8 M 6 days
Protocol: Briefly, the cells were fixed in suspension in 1% formaldehyde in PBS for 15 min on ice, then washed with PBS, and resuspended in ice-cold 80% ethanol for up to 24 h. […] The cells were then rinsed with PBS containing 1% BSA, counterstained with 4,6-diamidino-2-phenyl indole (DAPI) (Molecular Probes Inc., Eugene, Oreg.), and their fluorescence was measured by flow cytometry.

lymphocytes = conditions: 20 nM; cited from earlier work
underphosphorylated pRB = test: pRB phosphorylation in mitogen-stimulated lymphocytes, anti-pRB^P− mAb flow cytometry; format: cell-based, Human
Protocol: (§5) Human peripheral blood lymphocytes, obtained from healthy volunteers by venipuncture, were isolated by density gradient centrifugation. The cells were washed twice with phosphate-buffered saline (PBS), resuspended in RPMI 1640 medium supplemented with 10% fetal calf serum, 100 units/ml penicillin, 100 μg/ml streptomycin and 2 mM L-glutamine at a density of 10^6 cells/ml, treated with 10 μg/ml of phytohemagglutinin (PHA) and incubated at 37.5° C. in the mixture of 95% air and 5% CO2 for the periods of time shown in the respective figure legends. The medium, supplements, and antibiotics were obtained from Life Technologies (Grand Island, N.Y.), PHA from Sigma Chemical Co. (St. Louis, Mo.).
Stock solution of staurosporine (STP; Kamiya Biomedical Co., Thousand Oaks, Calif.) was made in dimethyl sulfoxide (DMSO) at a concentration 0.2 mM and was stored at −20° C.
The cells were washed with PBS and fixed in suspension in 1% formaldehyde in PBS for 15 min on ice. The cells were then washed with PBS and resuspended in ice-cold 80% ethanol for up to 24 h. After fixation the cells were rinsed twice with PBS and resuspended in 100 μl of PBS containing 0.25% Triton X-100 (Sigma), 1% bovine serum albumin (BSA; Sigma) and 1.2 μg/ml of the anti-pRB^T mAb (clone G3-245; PharMingen cat. No. 14001A) conjugated with CYCHROME® and/or with 1 μg/ml of anti-pRB^P− mAb (clone G99-549; PharMingen cat. No. 14441A), conjugated with FITC and incubated for 2 hours at room temperature. The cells were then rinsed with PBS containing 1% BSA and their fluorescence was measured by flow cytometry.
Cellular fluorescence was measured with the ELITE ESP flow cytometer/cell sorter (Coulter Inc., Miami, Fla.) using either an argon ion laser (emission at 488 nm) alone or combined with a helium-cadmium laser (emitting UV light). In the first case, fluorescence signals were collected using the standard configuration of the flow cytometer (green fluorescence, representing FITC labeled anti-pRB^P− mAb; red fluorescence representing CyChrome tagged anti-pRB^T mAb). In the second case, DNA content was analyzed based on DAPI fluorescence (blue emission) excited by UV light, while the anti-pRB^P− mAb FITC-related emission and anti-pRB^T CYCHROME®-related emission was excited with blue light laser. Unless noted, the procedures for multicolor measurement of cellular fluorescence and multivariate cell analysis were essentially as described in Juan et al., Cell. Prolif. 29:259–266 (1996) and Juan et al., Exper. Cell Res. 227:197–202 (1996). The experiments were repeated several times, on lymphocytes obtained from three different donors, yielding essentially identical results.

cyclin D3 [4] = conditions: lymphocytes, 20 nM; cited from earlier work
cyclin D3 [5] = test: Cyclin D3 expression in mitogen-stimulated lymphocytes, flow cytometry; format: cell-based, Human; conditions: 10 μg/ml
Protocol: as §5
After cell fixation (as described above) the cells were washed twice with PBS, suspended in 1 ml of 0.25% Triton X-100 in PBS, kept on ice for 5 min, centrifuged (300 g; 5 min) and the cell pellet resuspended in 100 μl of PBS containing 0.5 μg of the anti-cyclin D3 mAb (clone G107-565, mouse IgG,; PharMingen cat. No. 14781) and 1% BSA and incubated for 2 hours at room temperature. […] The cells were rinsed again, resuspended in 5 μg/ml of PI and 0.1% RNase in PBS and incubated at room temperature for 20 min prior to fluorescence measurements. Isotype-matched IgG (Sigma) was used as a control to define the background fluorescence. […]

total pRB [6] = test: Total pRB in mitogen-stimulated lymphocytes, anti-pRB^T mAb flow cytometry; format: cell-based, Human; conditions: 10 μg/ml, throughout all times of exposure
Protocol: as §5
The cells were washed with PBS and fixed in suspension in 1% formaldehyde in PBS for 15 min on ice. […] The cells were then rinsed with PBS containing 1% BSA and their fluorescence was measured by flow cytometry.
Cellular fluorescence was measured with the ELITE ESP flow cytometer/cell sorter (Coulter Inc., Miami, Fla.) using either an argon ion laser (emission at 488 nm) alone or combined with a helium-cadmium laser (emitting UV light). In the first case, fluorescence signals were collected using the standard configuration of the flow cytometer (green fluorescence, representing FITC labeled anti-pRB^P− mAb; red fluorescence representing CyChrome tagged anti-pRB^T mAb). […]

CCCCCCCCCCCCCC(=O)O[C@@H]1[C@@H](C)[C@@]2(O)[C@@H](C=C(CO)C[C@]3(O)C(=O)C(C)=C[C@@H]23)[C@@H]2C(C)(C)[C@]12OC(C)=O [PMA, phorbol myristate acetate]
bands of hypophosphorylated, hyperphosphorylated and total pRB, Western blot (pRB [1]): increased intensity bands
cell cycle arrest on induced differentiation (HL-60 cells): cell arrest primarily in G0/1

CC1=C(/C=C/C(C)=C/C=C/C(C)=C/C(=O)O)C(C)(C)CCC1 [RA, All-trans retinoic acid]
increase in pRB^P− of G0/1 cells (hypophosphorylated pRB): fourfold
pRB^P− of S and G2/M phase cells versus control cultures (hypophosphorylated pRB): over an order of magnitude higher
increase in pRB^T of G0/1 cells versus untreated cultures (total pRB [2]): 60%
pRB^T of S and G2/M cells versus untreated cultures (total pRB [2]): nearly twofold higher
pRB^P−/pRB^T level of S and G2/M phase cells versus control (pRB [3]): over fivefold higher
cell cycle arrest on induced differentiation (HL-60 cells): cell arrest primarily in G0/1

CN[C@@H]1C[C@H]2O[C@@](C)([C@@H]1OC)n1c3ccccc3c3c4c(c5c6ccccc6n2c5c31)C(=O)NC4 [STP, staurosporine]
arrest of lymphocytes in cell cycle (lymphocytes): arrests lymphocytes in G1
appearance of the cell population unreactive with anti-pRB^P− mAb (pRB phosphorylation) (underphosphorylated pRB; lymphocytes stimulated with PHA 24 hours, 20 nM): precluded the appearance of the cell population unreactive with anti-pRB^P− mAb
induction of cyclin D3 (cyclin D3 [4]): does not interfere with the induction of cyclin D3

C=C1/C(=C\C=C2/CCC[C@]3(C)[C@@H]([C@H](C)CCCC(C)(C)O)CC[C@@H]23)C[C@@H](O)C[C@@H]1O [vitamin D3, 1,25-dihydroxy vitamin D3]
increase in pRB^P− of G0/1 cells (hypophosphorylated pRB): fourfold
pRB^P− of S and G2/M phase cells versus control cultures (hypophosphorylated pRB): over an order of magnitude higher
increase in pRB^T of G0/1 cells versus untreated cultures (total pRB [2]): 20%
pRB^T of S and G2/M cells versus untreated cultures (total pRB [2]): nearly twofold higher
cell cycle arrest on induced differentiation (HL-60 cells): cell arrest primarily in G0/1

phytohemagglutinin [PHA]
proportion of cyclin D3-positive cells (cyclin D3 [5]; at 12 h): ~70%
proportion of cyclin D3-positive cells (cyclin D3 [5]; at 24 h): 40%
percentage of anti-pRB^P− mAb negative cells (underphosphorylated pRB; 10 μg/ml, at 24 h): 45%
fraction of lymphocytes that did not react with anti-pRB^P− mAb (underphosphorylated pRB; 10 μg/ml, between 4 and 12 hours): ~80%
percentage of anti-pRB^P− mAb negative cells (underphosphorylated pRB; 10 μg/ml, decreasing from 98 between 3 and 4 hours of stimulation): about 20%
percentage of anti-pRB^P− mAb negative cells (underphosphorylated pRB; 10 μg/ml, up to 14 h): about 20%
frequency of cells reactive with anti-pRB^T mAb (total pRB [6]): over 80%
